From patent US20140335050A1, “METHODS, COMPOSITIONS, AND KITS FOR THE TREATMENT OF CANCER” (The General Hospital Corporation, priority 2011, published 2014)

Columns and labels:
Type in all cases: cell-based, human
U-87 MG glioma cell line = experiment: Antibody staining and flow cytometry (intracellular gp100; surface MHC Class I); details: U-87 MG; 3 days; IFN-beta 5000 Units/ml, 17-AEP 0.5, PU-H71 0.3, CCT018159 5.0 μg/ml
Description: (§1) Cells were fixed with 1% formaldehyde, permeabilized with 0.1% saponin, stained with monoclonal antibodies to melanocyte antigens. Antibodies were obtained with specificity for: MART-1 from Vector Labs (Burlingame, Calif.); gp100 HMB45 from DakoCytomation (Carpinteria, Calif.) and then visualized with goat anti-mouse FITC-conjugated secondary antibody from Invitrogen (Fredrick, Md.). The level of EGFP was determined by flow cytometry of unfixed cells that were washed and resuspended in 1×PBS.
(§2) Cells were plated at a density of 1×10^5 in 1 ml of medium in a 24-well plate and cultured for varying times as indicated in results. […] After incubation, cells were collected by trypsinization and then evaluated by flow cytometry.
(§3) Intracellular staining and flow cytometric analyses of cytoplasmic Melan-A/MART-1, and gp100 expression were performed as described previously. Cells were fixed with 1% formaldehyde, permeabilized with 0.1% saponin, stained with monoclonal antibodies to melanocyte antigens. Antibodies were obtained with specificity for: Melan-A/MART-1 from Vector Labs (Burlingame, Calif.); gp100/HMB45 from DakoCytomation (Carpinteria, Calif.) and then visualized with goat anti-mouse FITC-conjugated secondary antibody from Invitrogen (Frederick, Md.). The level of EGFP was determined by flow cytometry of unfixed cells washed and resuspended in 1×PBS. Surface staining of MHC Class I was carried out using the antibody W6/32 on cells harvested with Cell Stripper from MediaTech Inc. (Manassas, Va.) and carried out on ice.

[1] = tested on: U-118 MG glioma cell line; experiment: Antibody staining and flow cytometry (intracellular gp100; surface MHC Class I/II); details: U-118 MG; 3 days; IFN-beta 5000 Units/ml, 17-AEP 1.0, PU-H71 0.3, CCT018159 10.0 μg/ml
MU89 melanoma cell line = experiment: Antibody staining and flow cytometry (intracellular Melan-A/MART-1, gp100, TRP-2; surface MHC Class I/II)
[2] = tested on: MU89 MART::EGFP cell line; experiment: Melan-A/MART-1 promoter-driven EGFP reporter, kinetics by flow cytometry; details: MU89 MART::EGFP (FIG. 11)
[3] = tested on: MALME-3M melanoma cell line; experiment: Antibody staining and flow cytometry (intracellular Melan-A/MART-1, gp100, TRP-2; surface MHC Class I)
Description: as §1, §2, §3

A375 melanoma cell line = experiment: as above
Description: as §1, §2, §3
(§4) Cell were seeded at 1×10^6 cells in a T25 flask with 10 ml of media for the 4 day IFN-beta pre-treatments. Cells were then harvested and plated in 24 well plate at 1×10^5 cells per well in 1 ml of media for 3 day treatments.
(§5) For surface staining of HLA Class I and II antigens, cells were harvested using CellStripper™ from Mediatech (Manassas, Va.). All staining steps were performed on ice. Following a first incubation with antibody to Class I (W6/32) or Class II (L243) for 30 minutes. Stained cells were washed twice with cold PBS and then stained with a goat anti-mouse FITC secondary antibody to allow for quantitative analysis by flow cytometry. For evaluation of cytoplasmic antigens, including Melan-A/MART-1 and gp100, cells were first fixed in paraformaldehyde and permeabilized with saponin as previously described. Staining for cytoplasmic antigens was carried out at room temperature (22° C.).

MUX melanoma cell line = experiment: as above
Description: as §1, §2, §3, §4, §5

[4] = MU89 (BRAF M/WT, NRAS WT), 3 days, 17-AEP 0.50, CCT018159 10.00, PU-H71 0.30 μg/ml
[5] = MU89, 3 days, IFN-beta 5000 Units/ml, 17-AEP 1.0, PU-H71 0.3, CCT018159 10.0 μg/ml
[6] = MALME-3M (BRAF M/WT, NRAS WT), 3 days, 17-AEP 0.25, CCT018159 5.00, PU-H71 0.30 μg/ml
[7] = MALME-3M, 3 days, IFN-beta 5000 Units/ml, 17-AEP 1.0, PU-H71 0.3, CCT018159 10.0 μg/ml
[8] = 3 days, IFN-beta 5000 Units/ml, 17-AEP 0.5, PU-H71 0.15, CCT018159 2.5 μg/ml
[9] = MUX (BRAF M/M, NRAS WT), 3 days, 17-AEP 0.50, CCT018159 5.00, PU-H71 0.30 μg/ml
[10] = MUX, 3 days, IFN-beta 5000 Units/ml, 17-AEP 1.0, PU-H71 0.3, CCT018159 10.0 μg/ml

SMILES: CCc1cc(-c2n[nH]c(C)c2-c2ccc3c(c2)OCCO3)c(O)cc1O [CCT018159]
- Class I, fold increase relative to untreated control (U-87 MG glioma cell line): 1.0 fold
- Class I, geometric mean of surface staining (W6/32) (U-87 MG glioma cell line): 28
- gp100, fold increase relative to untreated control (U-87 MG glioma cell line): 2.5 fold
- gp100, geometric mean of intracellular staining (U-87 MG glioma cell line): 71
- Class I, fold increase relative to untreated control [1]: 2.0 fold
- Class I, geometric mean of surface staining (W6/32) [1]: 101
- gp100, fold increase relative to untreated control [1]: 1.4 fold
- gp100, geometric mean of intracellular staining [1]: 83
- HMB45, level of induction relative to untreated control cells (MU89 melanoma cell line; [4]): 3.92
- MART-1, level of induction relative to untreated control cells (MU89 melanoma cell line; [4]): 3.22
- Class I, fold increase relative to untreated control (MU89 melanoma cell line; [5]): 4.2 fold
- Class I, geometric mean of surface staining (W6/32) (MU89 melanoma cell line; [5]): 75
- MART-1, fold increase relative to untreated control (MU89 melanoma cell line; [5]): 3.0 fold
- MART-1, geometric mean of intracellular staining (MU89 melanoma cell line; [5]): 99
- TRP-2, fold increase relative to untreated control (MU89 melanoma cell line; [5]): 2.7 fold
- TRP-2, geometric mean of intracellular staining (MU89 melanoma cell line; [5]): 252
- gp100, fold increase relative to untreated control (MU89 melanoma cell line; [5]): 2.2 fold
- gp100, geometric mean of intracellular staining (MU89 melanoma cell line; [5]): 273
- MHC Class I, geometric mean of surface staining (W6/32) (MU89 melanoma cell line; MU89, 4 day IFN-β pre-treatment (5000 Units/ml), then 3 days with fresh IFN-β and the labelled HSP90 inhibitor (label IFN-β: no inhibitor), 17-AEP 1, PU-H71 0.3, CCT018159 10 mg/ml): 281
- MHC Class I, geometric mean of surface staining (W6/32) (MU89 melanoma cell line; MU89, 4 day IFN-β pre-treatment (5000 Units/ml), then 3 days without IFN-β with the labelled HSP90 inhibitor (label IFN-β: no inhibitor), 17-AEP 1, PU-H71 0.3, CCT018159 10 mg/ml): 232
- MHC Class I, geometric mean of surface staining (W6/32) (MU89 melanoma cell line; MU89, single agent for 3 days, no IFN-β pre-treatment, IFN-β 5000 Units/ml): 73
- MHC Class I, geometric mean of surface staining (W6/32) (MU89 melanoma cell line; MU89, three days, IFN-β 5000 Units/ml): 75
- Time at which the fluorescent reporter signal is significantly enhanced (as early as) [2]: 2 days
- HMB45, level of induction relative to untreated control cells [3, 6]: 3.63
- MART-1, level of induction relative to untreated control cells [3, 6]: 2.48
- Class I, fold increase relative to untreated control [3, 7]: 1.6 fold
- Class I, geometric mean of surface staining (W6/32) [3, 7]: 72
- MART-1, fold increase relative to untreated control [3, 7]: 2.5 fold
- MART-1, geometric mean of intracellular staining [3, 7]: 291
- TRP-2, fold increase relative to untreated control [3, 7]: 2.1 fold
- TRP-2, geometric mean of intracellular staining [3, 7]: 222
- gp100, fold increase relative to untreated control [3, 7]: 3.6 fold
- gp100, geometric mean of intracellular staining [3, 7]: 823
- MHC Class I, geometric mean of surface staining (W6/32) ([3]; MALME, three days, IFN-β 5000 Units/ml): 72
- Class I, fold increase relative to untreated control (A375 melanoma cell line; [8]): 1.9 fold
- Class I, geometric mean of surface staining (W6/32) (A375 melanoma cell line; [8]): 70
- MART-1, fold increase relative to untreated control (A375 melanoma cell line; [8]): 2.2 fold
- MART-1, geometric mean of intracellular staining (A375 melanoma cell line; [8]): 13
- TRP-2, fold increase relative to untreated control (A375 melanoma cell line; [8]): 2.3 fold
- TRP-2, geometric mean of intracellular staining (A375 melanoma cell line; [8]): 37
- gp100, fold increase relative to untreated control (A375 melanoma cell line; [8]): 2.1 fold
- gp100, geometric mean of intracellular staining (A375 melanoma cell line; [8]): 32
- MHC Class I, geometric mean of surface staining (W6/32) (A375 melanoma cell line; 4 day IFN-β pre-treatment (5000 Units/ml), then 3 days with fresh IFN-β and the labelled HSP90 inhibitor (label IFN-β: no inhibitor), 17-AEP 0.5, PU-H71 0.15, CCT018159 2.5): 181
- MHC Class I, geometric mean of surface staining (W6/32) (A375 melanoma cell line; 4 day IFN-β pre-treatment (5000 Units/ml), then 3 days without IFN-β with the labelled HSP90 inhibitor (label IFN-β: no inhibitor), 17-AEP 0.5, PU-H71 0.15, CCT018159 2.5): 139
- MHC Class I, geometric mean of surface staining (W6/32) (A375 melanoma cell line; single agent for 3 days, no IFN-β pre-treatment, IFN-β 5000 Units/ml, 17-AEP 0.5, PU-H71 […], CCT018159 2.5): 119
- MHC Class I, geometric mean of surface staining (W6/32) (A375 melanoma cell line; three days, IFN-β 5000 Units/ml, 17-AEP 0.5, PU-H71 […], CCT018159 2.5): 70
- HMB45, level of induction relative to untreated control cells (MUX melanoma cell line; [9]): 1.89
- MART-1, level of induction relative to untreated control cells (MUX melanoma cell line; [9]): 1.64
- Class I, fold increase relative to untreated control (MUX melanoma cell line; [10]): 1.7 fold
- Class I, geometric mean of surface staining (W6/32) (MUX melanoma cell line; [10]): 174
- MART-1, fold increase relative to untreated control (MUX melanoma cell line; [10]): 1.7 fold
- MART-1, geometric mean of intracellular staining (MUX melanoma cell line; [10]): 22
- TRP-2, fold increase relative to untreated control (MUX melanoma cell line; [10]): 1.0 fold
- TRP-2, geometric mean of intracellular staining (MUX melanoma cell line; [10]): 40
- gp100, fold increase relative to untreated control (MUX melanoma cell line; [10]): 1.5 fold
- gp100, geometric mean of intracellular staining (MUX melanoma cell line; [10]): 40
- MHC Class I, geometric mean of surface staining (W6/32) (MUX melanoma cell line; MUX, 4 day IFN-β pre-treatment (5000 Units/ml), then 3 days with fresh IFN-β and the labelled HSP90 inhibitor (label IFN-β: no inhibitor), 17-AEP 1, PU-H71 0.3, CCT018159 10 mg/ml): 599
- MHC Class I, geometric mean of surface staining (W6/32) (MUX melanoma cell line; MUX, 4 day IFN-β pre-treatment (5000 Units/ml), then 3 days without IFN-β with the labelled HSP90 inhibitor (label IFN-β: no inhibitor), 17-AEP 1, PU-H71 0.3, CCT018159 10 mg/ml): 397
- MHC Class I, geometric mean of surface staining (W6/32) (MUX melanoma cell line; MUX, single agent for 3 days, no IFN-β pre-treatment, IFN-β 5000 Units/ml, 17-AEP 1 μg/ml, PU-H71 0.3 μg/ml, CCT018159 10 μg/ml): 265
- MHC Class I, geometric mean of surface staining (W6/32) (MUX melanoma cell line; MUX, three days, IFN-β 5000 Units/ml, 17-AEP 1 μg/ml, PU-H71 0.3 μg/ml, CCT018159 10 μg/ml): 174
